In US20220133740A1, “VALPROIC ACID COMPOUNDS AND WNT AGONISTS FOR TREATING EAR DISORDERS” (Frequency Therapeutics, Inc., priority 2019, published 2022):
Entries after “also recorded” stand apart in the source; their conditions may differ. Where two headings read alike, the source gives them in different places.

Assays:
GSK3-beta = GSK3-beta (Homo sapiens, UniProt P49841); conditions: cited from earlier work
GSK3-alpha [1] = molecular target: T1, GSK3-alpha (Homo sapiens, UniProt P49840); conditions: cited from earlier work; for GSK-3 alpha: Table 5
Lgr5+ cells = test: Lgr5+ Assay; assay type: cell-based; conditions: Table 5
[2] = Perilymph valproic acid after systemic plus local administration versus local-only administration; assay type: in vivo; conditions: guinea pig, i.v. 25 mg/mL sodium valproate plus 20 μL poloxamer formulation (sodium valproate 88.63 mg/mL, CHIR99021 3.14 mg/mL) at round window niche, perilymph at 3 hours; FIG. 4
[3] = Perilymph valproic acid along the cochlea (sequential apical sampling) after systemic sodium valproate; assay type: in vivo; conditions: guinea pig, perilymph at 3 hours, therapeutic level as determined in vitro on primary cochlear Lgr5 cells
[4] = Blood/plasma valproic acid levels after intravenous sodium valproate; assay type: in vivo; conditions: guinea pig, i.v. 100 mg/mL sodium valproate at 20 μL/min for 60 minutes (120 mg, about 330 mg/kg); FIG. 2A
GSK3-alpha [5] = molecular target: T1, GSK3-alpha; test: GSK3-alpha inhibitor potency (Tables 2 and 5); assay type: biochemical

T1 sequence (P49840 whole entry): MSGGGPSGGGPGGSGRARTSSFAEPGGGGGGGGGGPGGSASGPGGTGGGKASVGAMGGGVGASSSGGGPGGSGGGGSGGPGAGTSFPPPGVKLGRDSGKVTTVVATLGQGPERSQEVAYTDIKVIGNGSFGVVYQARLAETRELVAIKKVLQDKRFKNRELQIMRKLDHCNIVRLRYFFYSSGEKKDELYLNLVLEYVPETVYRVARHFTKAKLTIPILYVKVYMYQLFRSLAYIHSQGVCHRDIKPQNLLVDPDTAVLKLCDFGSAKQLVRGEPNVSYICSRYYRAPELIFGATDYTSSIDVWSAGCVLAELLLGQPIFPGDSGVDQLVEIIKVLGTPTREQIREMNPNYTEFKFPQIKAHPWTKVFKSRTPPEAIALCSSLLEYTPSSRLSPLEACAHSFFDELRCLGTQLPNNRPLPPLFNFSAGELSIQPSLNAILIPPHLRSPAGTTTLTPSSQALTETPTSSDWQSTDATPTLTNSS
Sequence of GSK3-beta (P49841 whole entry): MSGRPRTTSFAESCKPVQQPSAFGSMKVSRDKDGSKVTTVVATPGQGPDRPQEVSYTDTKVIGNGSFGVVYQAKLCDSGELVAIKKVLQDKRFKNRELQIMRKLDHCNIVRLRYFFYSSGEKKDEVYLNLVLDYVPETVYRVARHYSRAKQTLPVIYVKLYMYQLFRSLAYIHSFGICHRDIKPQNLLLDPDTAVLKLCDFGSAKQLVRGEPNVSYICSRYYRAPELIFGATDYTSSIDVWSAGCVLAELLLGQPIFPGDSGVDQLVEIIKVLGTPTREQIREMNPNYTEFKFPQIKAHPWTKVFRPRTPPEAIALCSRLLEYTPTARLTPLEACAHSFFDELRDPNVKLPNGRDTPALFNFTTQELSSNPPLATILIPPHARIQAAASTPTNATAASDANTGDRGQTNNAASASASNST

Compound | Potency (nM) GSK3-beta (GSK3-beta; Table 2) [nM] | Potency (nM) GSK3-alpha (GSK3-alpha [1]; Table 2) [nM] | further results
carbonyl(η^5-2,4-cyclopentadien-1-yl)(9-hydroxypyrido[2,3-a]pyrrolo[3,4-c]carbazole-5,7(1H,6H)-dionato-κN^1,κN^12)-Ruthenium [(R)-DW12] | 1 | 0.5 | –
COc1ccc(-c2cnc3[nH]cc(/C=C/C(=O)NCc4ccncc4)cc2-3)cc1 [Compound 27, (E)-3-(3-(4-methoxyphenyl)-7H-pyrrolo[2,3-b]pyridin-5-yl)-N-(pyridin-4-ylmethyl)acrylamide] | 140 | 42 | –
Cc1[nH]nc2c1[C@](C)(c1ccccc1)C1=C(CC(C)(C)CC1=O)N2 [Compound 16, (S)-3,4,7,7-tetramethyl-4-phenyl-2,4,6,7,8,9-hexahydro-5H-pyrazolo[3,4-b]quinolin-5-one] | 26 | 8 | –
Cc1[nH]nc2c1C(c1cccc(F)c1)C1=C(CC(C)(C)CC1=O)N2 (stereo not drawn) [Compound 9, 4-(3-fluorophenyl)-3,7,7-trimethyl-2,4,6,7,8,9-hexahydro-5H-pyrazolo[3,4-b]quinolin-5-one] | 156 | 62 | –
CO[C@H]1CC[C@H](NC(=O)c2n[nH]cc2NC(=O)c2ccc(N3CCN(C)CC3)cc2)CC1 [Compound 4t, N-((1r,4r)-4-methoxycyclohexyl)-4-(4-(4-methylpiperazin-1-yl)benzamido)-1H-pyrazole-3-carboxamide] | <5 | – | –
CC1(C)CC(=O)C2=C(C1)Nc1n[nH]c(C(F)(F)F)c1[C@]2(C)c1ccccc1 [BRD1652, N-4,7,7-trimethyl-4-phenyl-3-(trifluoromethyl)-2,4,6,7,8,9-hexahydro-5H-pyrazolo[3,4-b]quinolin-5-one] | 4 | 0.4 | –
CO[C@H]1CC[C@H](NC(=O)c2n[nH]cc2NC(=O)C2CCC(F)(F)CC2)CC1 [Compound 4a, 4-(4,4-difluorocyclohexane-1-carboxamido)-N-((1r,4r)-4-metboxycyclohexyl)-1H-pyrazole-3-carboxamide] | 8 | – | –
(3-aminopyrido[2,3-a]pyrrolo[3,4-c]carbazole-5,7(1H,6H)-dionato-κN^1,κN^12)carbonylchloro(2-pyridinemethanamine-κN^1,κN^2)-, (OC-6-24-A)-Ruthenium [lambda-OS1] | 6 | 0.9 | –
Cc1cnc(-c2cnc(NCCNc3ccc(C#N)cn3)nc2-c2ccc(Cl)cc2Cl)[nH]1 [CHIR99021, 6-[[2-[[4-(2,4-dichlorophenyl)-5-(5-methyl-1H-imidazol-2-yl)-2-pyrimidinyl]amino]ethyl]amino]-3-pyridinecarbonitrile] | – | – | Lgr5 + Assay (Lgr5+ cells): 2 to 6 µM
CCCC(CCC)C(=O)O [Valproic Acid, 2-propyl pentanoic acid] | – | – | perilymph valproic acid distribution and retention, systemic plus local versus local-only administration [2]: improved the drug distribution and retention in guinea pig cochlea
O=C(O)COc1ccc(Nc2ncc3nnn(-c4ccccc4)c3n2)cc1 [Compound 92, 2-(4-((3-phenyl-3H-[1,2,3]triazolo[4,5-d]pyrimidin-5-yl)amino)phenoxy)acetic acid] | 13 | 9 | –
O=C1NC(=O)C(c2cnc3ccccn23)=C1c1cn2c3c(cc(F)cc13)CN(C(=O)N1CCCCC1)CC2 [LY2090314, 3-(9-fluoro-2-(piperidine-1-carbonyl)-1,2,3,4-tetrahydro-[1,4]diazepino[6,7,1-hi]indol-7-yl)-4-(imidazo[1,2-a]pyridin-3-yl)-1H-pyrrole-2,5-dione] | – | – | GSK3-beta potency (GSK3-beta; Table 5): 0.9 nM; Lgr5 + Assay (Lgr5+ cells): 0.005 to 0.02 µM; GSK-3 alpha (GSK3-alpha [1]): 2.1 nM
Cn1cc(C2=C(c3cccc(N)c3)C(=O)NC2=O)c2ccccc21 [Compound 3, 3-(3-aminophenyl)-4-(1-methyl-1H-indol-3-yl)-1H-pyrrole-2,5-dione] | 10 | 3 | –
Cc1ccc(C(=O)Nc2c[nH]nc2C(=O)NCCCOC(C)C)cn1 [GSK-3 Inhibitor XXII, 6-methyl-N-[3-[[3-(1-methylethoxy)propyl]carbamoyl]-1H-pyrazol-4-yl]pyridine-3-carboxamide] | – | 2.3 | Lgr5 + Assay (Lgr5+ cells): 0.2 to 1 µM; GSK-3 alpha (GSK3-alpha [1]): 2.3 nM
CCCC(CCC)C(=O)[O-].[Na+] [Sodium Valproate, sodium 2-propylpentanoate] | – | – | distribution and level of valproate in cochlear perilymph ([3]; i.v. 25 mg/mL sodium valproate at 20 μL/min for 60 min (about 26 mg valproate)): did not achieve therapeutic levels; distribution and level of valproate in cochlear perilymph (apex to base, serial samples 1-4) ([3]; i.v. 100 mg/mL sodium valproate at 20 μL/min for 60 min): Uniform distribution of valproate was observed throughout the cochlea at 3 hours; also recorded: uniform distribution and therapeutic levels; time at which plasma levels peaked [4]: ≤ 1 h
COc1ccccc1[C@@H]1C2=C(CC(C)(C)CC2=O)N=C2NNC(C(F)(F)F)=C21 [BRD1172, (R)-4-(2-methoxyphenyl)-7,7-dimethyl-3-(trifluoromethyl)-1,2,4,6,7,8-hexahydro-5H-pyrazolo[3,4-b]quinolin-5-one] | – | – | Potency (nM) GSK3-beta (GSK3-beta): 10 nM; Ratio of alpha to beta (GSK3-alpha [5]): 3.3; Potency (nM) GSK3-alpha (GSK3-alpha [1]): 3 nM
c1ccc(Nc2ncc3nnn(-c4ccccc4)c3n2)cc1 [Compound 90, N,3-diphenyl-3H-[1,2,3]triazolo[4,5-d]pyrimidin-5-amine] | 628 | 330 | –
N#Cc1ccc2c(c1)/C(=C1\C=CC(CN3CCOCC3)=CN1)C(=O)N2 [AZD1080, (Z)-3-(5-(morpholinomethyl)pyridin-2(1H)-ylidene)-2-oxoindoline-5-carbonitrile] | – | 6.9 | Lgr5 + Assay (Lgr5+ cells): 1 to 5 µM; GSK-3 alpha (GSK3-alpha [1]): 6.9 nM
Cc1ccccc1C1C2=C(CC(C)(C)CC2=O)Nc2n[nH]c(C)c21 (stereo not drawn) [Compound 11, 3,7,7-trimethyl-4-(o-tolyl)-2,4,6,7,8,9-hexahydro-5H-pyrazolo[3,4-b]quinolin-5-one] | 102 | 32 | –
O=C1NC(=O)[C@@H](c2cn3c4c(cccc24)CCC3)[C@@H]1c1c[nH]c2ccccc12 [Tivantinib, (3R,4R)-3-(5,6-dihydro-4H-pyrrolo[3,2,1-ij]quinolin-1-yl)-4-(1H-indol-3-yl)pyrrolidine-2,5-dione] | 1865 | 659 | –
CO[C@H]1CC[C@H](NC(=O)c2n[nH]cc2NC(=O)c2ncoc2-c2ccccc2)CC1 [Compound 4z, N-(3-(((1r,4r)-4-methoxycyclohexyl)carbamoyl)-1H-pyrazol-4-yl)-5-phenyloxazole-4-carboxamide] | 5 | – | –
